Data as given in patent publication US5470827A, “Method of producing iturin A and antifungal agent for profound mycosis” (Higeta Shoyu Co., Ltd., priority 1993, dated 1995).
Converted amounts (≈) assume the structure as drawn. *1 amine or outer side, *2 acyl side, *3 side chain or, on linkers, in order; H or OH if unused. Where a SMILES comes first, the peptide text is derived from it. [ ]: non-standard residue; d: D form. ξ: configuration not given here. ξβ3hGly(tridecyl) = CCCCCCCCCCCCCC(CC(=O)[*:2])N[*:1]; ξβ3hGly(undecyl) = CCCCCCCCCCCC(CC(=O)[*:2])N[*:1]; X2 = CC(C)CCCCCCCCC[C@H](CC(=O)[*:2])N[*:1]; X6 = CCC(C)CCCCCCCCCCC(CC(=O)[*:2])N[*:1]; X4 = CC(C)CCCCCCCCCCC(CC(=O)[*:2])N[*:1]; X3 = CCC(C)CCCCCCCCC(CC(=O)[*:2])N[*:1]; X5 = CCCCCCCCCCCCC(CC(=O)[*:2])N[*:1]

Assays:
[1] = test system: Candida albicans 7N; format: cell-based; conditions: for MIC: 7N
Method: (§1) The microbicidal spectrum of iturin A, which is the active ingredient in the antifungal agent for profound mycosis of the present invention, may be obtained, for example, from the minimum growth inhibiting concentration (MIC) of iturin A to various fungi such as clinically-isolated strains, animal-infected fungi and others to be obtained on the basis of the method as designated by Japan Chemotherapy Association.
(§2) The antifungal activity of iturin A as produced in Example 1 was measured to identify its antifungal activity. Precisely, the minimum growth inhibiting concentration (MIC) of iturin A4 against fungi was measured on the basis of the method as designated by Japan Chemotherapy Association, and the results shown in Table 6 below were obtained.
In addition, MIC of each of iturin A2 to iturin A8 against Candida albicans 7N was measured in the same manner as above, and the results shown in Table 7 below were obtained.
Fungi used: Candida albicans 7N
Medium used: 0.5% Glucose, Yeastnitrogen base (made by DIFCO Co.)

[2] = Acute toxicity, single intravenous injection; format: in vivo, ddy-N mice; conditions: male mice
Method: (§3) In the next test, mice of the same kind as mentioned above were used. Iturin A4 was dissolved in DMSO(dimethylsulfoxide)-castor oil-5% Glc solution, and the resulting solution was injected to the caudal vein of each of the five male mice once or plural times. For the single injection, the solution was administered to the mice each in an amount of 200 mg per kg of the body weight; and for the plural injections, it was administered to them 14 times each in an amount of 30 mg/kg/day. After the injection(s), the time-dependent mortality of the test mice was observed and the results shown in Tables 10 and 11 below were obtained.

[3] = test system: Candida albicans IFM 40002; experiment: minimum growth inhibiting concentration (MIC); format: cell-based
Method: as §1, §2

[4] = test system: C. glabrata IFM 40065; experiment: minimum growth inhibiting concentration (MIC); format: cell-based
Method: as §1, §2

[5] = test system: Mucor guilliermondii IFO 9403; experiment: minimum growth inhibiting concentration (MIC); format: cell-based
Method: as §1, §2

[6] = test system: Candida albicans IFM 40001; experiment: minimum growth inhibiting concentration (MIC); format: cell-based
Method: as §1, §2

[7] = test system: Cryptococcus neoformans IFM 40038; experiment: minimum growth inhibiting concentration (MIC); format: cell-based
Method: as §1, §2

[8] = test system: A. flavas IAM 2044; experiment: minimum growth inhibiting concentration (MIC); format: cell-based
Method: as §1, §2

[9] = test system: C. tropicalis IFM 40018; experiment: minimum growth inhibiting concentration (MIC); format: cell-based
Method: as §1, §2

[10] = test system: C. krusei IFM 40019; experiment: minimum growth inhibiting concentration (MIC); format: cell-based
Method: as §1, §2

[11] = test system: Cryptococcus neoformans IFM 40043; experiment: minimum growth inhibiting concentration (MIC); format: cell-based
Method: as §1, §2

[12] = test system: Aspergillus fumigatus Tsukuba No. 12; experiment: minimum growth inhibiting concentration (MIC); format: cell-based
Method: as §1, §2

[13] = Acute toxicity, plural intravenous injections; format: in vivo, ddy-N mice; conditions: male mice, intravenous 30 mg/kg/day × 14 times
Method: as §3

[14] = Acute Toxicity Test, oral single administration; format: in vivo, ddy-N mice; conditions: for Mortality (%) / Time-Dependent Mortality: oral 2,000 mg/kg once; for Time-Dependent Mortality: day 1; for LD50 (mg/kg): oral single administration
Method: Iturin A4 obtained in Example 1 was dissolved in an injectable distilled water to prepare an aqueous 10% (w/v) solution of iturin A4 to be tested. The test solution was forcedly oral-administered once to five male and five female ddy-N mice, after having been fasted for 13 hours, by the use of a stomach probe. The test ddy-N mice were about 4-week age ones and were obtained from Nippon Medico-Chemical Animal Sources Laboratories Co., Ltd. Prior to the test, all the test mice were preliminarily bred in the laboratory for one week so as to confirm the healthy condition of them. Then, the about 5-week age mice were subjected to the test. The body weight of the test mice just before the test was 28 g (male mice) and from 18 to 22 g (female mice).
To each of the male and female mice, the test solution was administered in an amount of 20 ml per kg of the body weight, whereby 2,000 mg/kg of the test substance was administered to them.

[15] = oral 2,000 mg/kg, male and female mice

Structure (SMILES): CCC(C)CCCCCCCCC1CC(=O)N[C@@H](CC(N)=O)C(=O)N[C@H](Cc2ccc(O)cc2)C(=O)N[C@H](CC(N)=O)C(=O)N[C@@H](CCC(N)=O)C(=O)N2CCC[C@H]2C(=O)N[C@H](CC(N)=O)C(=O)N[C@@H](CO)C(=O)N1 (stereo partly shown) [Iturin A3, iturin A3] (cyclo(N[dY][dN]QP[dN]S[X3]))
- MIC [1]: 50 µg/mL (≈ 47.3 µM)

Structure (SMILES): CCCCCCCCCCCC1CC(=O)N[C@@H](CC(N)=O)C(=O)N[C@H](Cc2ccc(O)cc2)C(=O)N[C@H](CC(N)=O)C(=O)N[C@@H](CCC(N)=O)C(=O)N2CCC[C@H]2C(=O)N[C@H](CC(N)=O)C(=O)N[C@@H](CO)C(=O)N1 (stereo partly drawn) [Iturin A2, iturin A2] (cyclo(N[dY][dN]QP[dN]S[ξβ3hGly(undecyl)]))
- MIC [1]: 50 µg/mL (≈ 47.9 µM)

Structure (SMILES): CC(C)CCCCCCCCCCC1CC(=O)N[C@@H](CC(N)=O)C(=O)N[C@H](Cc2ccc(O)cc2)C(=O)N[C@H](CC(N)=O)C(=O)N[C@@H](CCC(N)=O)C(=O)N2CCC[C@H]2C(=O)N[C@H](CC(N)=O)C(=O)N[C@@H](CO)C(=O)N1 (stereo partly shown) [Iturin A6, iturin A6] (cyclo(N[dY][dN]QP[dN]S[X4]))
- MIC [1]: 12.5 µg/mL (≈ 11.7 µM)

Structure (SMILES): CCCCCCCCCCCCC1CC(=O)N[C@@H](CC(N)=O)C(=O)N[C@H](Cc2ccc(O)cc2)C(=O)N[C@H](CC(N)=O)C(=O)N[C@@H](CCC(N)=O)C(=O)N2CCC[C@H]2C(=O)N[C@H](CC(N)=O)C(=O)N[C@@H](CO)C(=O)N1 (stereo partly shown) [Iturin A5, iturin A5] (cyclo(N[dY][dN]QP[dN]S[X5]))
- MIC [1]: 25 µg/mL (≈ 23.6 µM)

Structure (SMILES): CC(C)CCCCCCCCC[C@@H]1CC(=O)N[C@@H](CC(N)=O)C(=O)N[C@H](Cc2ccc(O)cc2)C(=O)N[C@H](CC(N)=O)C(=O)N[C@@H](CCC(N)=O)C(=O)N2CCC[C@H]2C(=O)N[C@H](CC(N)=O)C(=O)N[C@@H](CO)C(=O)N1 [Iturin A4, iturin A4] (cyclo(N[dY][dN]QP[dN]S[X2]))
- MIC (μg/ml) of Iturin A4 ([1]; Candida albicans 7N (Table 6)): 25 µg/mL
- LD50 ([2]; single intravenous injection): > 200 mg/kg
- Mortality (%) ([2]; single intravenous injection 200 mg/kg): 0%
- Time-Dependent Mortality ([2]; single intravenous injection 200 mg/kg, day 1): 0/5
- MIC (μg/ml) of Iturin A4 [3]: 1.56 µg/mL
- MIC (μg/ml) of Iturin A4 [4]: 6.25 µg/mL
- MIC (μg/ml) of Iturin A4 [5]: 1.2 µg/mL
- MIC (μg/ml) of Iturin A4 [6]: < 0.05 µg/mL
- MIC (μg/ml) of Iturin A4 [7]: 3.13 µg/mL
- MIC (μg/ml) of Iturin A4 [8]: 2.4 µg/mL
- MIC (μg/ml) of Iturin A4 [9]: 6.25 µg/mL
- MIC (μg/ml) of Iturin A4 [10]: 25 µg/mL
- MIC (μg/ml) of Iturin A4 [11]: 0.78 µg/mL
- MIC (μg/ml) of Iturin A4 [12]: 6.25 µg/mL
- Mortality (%) [13]: 0%
- Time-Dependent Mortality ([13]; 14 days): 0/5
- Time-Dependent Mortality ([13]; day 1): 0/5
- Mortality (%) ([14]; female mice): 0%
- Time-Dependent Mortality ([14]; female mice): 0/5
- LD50 (mg/kg) ([14]; female mice): > 2,000 mg/kg
- Mortality (%) ([14]; male mice): 0%
- Time-Dependent Mortality ([14]; male mice): 0/5
- LD50 (mg/kg) ([14]; male mice): > 2,000 mg/kg
- time until vitality came back to normal after the administration [14, 15]: 2 h
- vitality of the test mice just after the administration [14, 15]: lowered slightly

Structure (SMILES): CCCCCCCCCCCCCC1CC(=O)N[C@@H](CC(N)=O)C(=O)N[C@H](Cc2ccc(O)cc2)C(=O)N[C@H](CC(N)=O)C(=O)N[C@@H](CCC(N)=O)C(=O)N2CCC[C@H]2C(=O)N[C@H](CC(N)=O)C(=O)N[C@@H](CO)C(=O)N1 (stereo partly drawn) [Iturin A7, iturin A7] (cyclo(N[dY][dN]QP[dN]S[ξβ3hGly(tridecyl)]))
- MIC [1]: 6.25 µg/mL (≈ 5.83 µM)

Structure (SMILES): CCC(C)CCCCCCCCCCC1CC(=O)N[C@@H](CC(N)=O)C(=O)N[C@H](Cc2ccc(O)cc2)C(=O)N[C@H](CC(N)=O)C(=O)N[C@@H](CCC(N)=O)C(=O)N2CCC[C@H]2C(=O)N[C@H](CC(N)=O)C(=O)N[C@@H](CO)C(=O)N1 (stereo partly shown) [Iturin A8, iturin A8] (cyclo(N[dY][dN]QP[dN]S[X6]))
- MIC [1]: 12.5 µg/mL (≈ 11.5 µM)
